# Measurements from patent US6713511B1, “Fatty acid derivatives” (priority 1998, dated 2004).
# Like-named read-outs stand apart in the source and are kept apart here.
# Assays:
# Assay type in all cases: in vivo, rat
# [1] = tested on: rats with unilateral caudate nucleus (striatum) lesion
# Text: One of the major behavioral methods to measure the increase in dopamine activity in the brain is rotational behavior. Dopamine is the neurotransmitter in the striatum. The striatum controls motor movements and motor integration. In the brain there are two striata, in the right and left hemispheres, respectively. Unilateral ablation of a striatum will result in walking in circles, as the intact striatum is still functioning; Ungerstadt, U. et al., Brain Res., 1970, 24: 485-492, created a lesion in one striatum and measured the effect on rotational behavior. Since then, this technique has been used to screen molecules, such as stimulants or potential anti-Parkinson drugs, which induce increase in dopaminergic activity.
# Groups of 6 male Sprague-Dawley rats (Charles River Laboratories, Wilmington, Mass.) weighing 100-120 g, were housed 6 per cage in a well-ventilated and air-conditioned room of ambient temperature (22±2° C.) and relative humidity 45%. The rats had access to food (Big Red Laboratory Chow, Agway Inc., Syracuse, N.Y.) and water ad libitum. Light (“Vita Light”, Duro Test Corp., North Bergen, N.J.) was provided between 9 am and 9 pm.
# All surgery was performed under anesthesia (sodium pentobarbital, 50 mg/ml, as required). The rats were placed in a Kopf stereotaxic instrument (model #900). Unilateral anodal electrolytic lesions were made with constant current supply (lesion-producing device #58040, Stoelting, Chicago, Ill.). Current (2.0 mV for 10 seconds) was passed through stainless steel insulated wire pe 32, 0.008 inches diameter (“Formax”, Stoelting, Chicago, Ill.), bared only at the tip. […]
# Rotational behavior was tested in a rotameter, modified from the design of Ungerstedt et al., 1970. […] The potentiometer (preamplifier 8805 A) measured and recorded the changes in the amount of current which passed through it, resulting from the rotational movements of the rats. […]
# Each rat was placed in the rotameter and treated with an i.p. injection of saline or (I) (10 mg/kg) as prepared above. […] The frequency of turning was measured between 30-40 minutes post-injection. […]
# [2] = tested on: rats challenged with Ro4-1284; assay: Ro4-1284-induced blephrospasm model
# Text: This is an involuntary spasm of the orbicular muscles of the eye, causing forceful closure of the eyes. Symptomatically there is a significant increase in the rate of eyelid closures/min. This phenomenon is regarded as a type of dystonia, a decrease in the brain dopamine level being the etiology of this syndrome. Ro4-1284 is a powerful dopamine-depleting agent. In saline-treated animals, Ro4-1284 is able to induce an animal model of benign essential blephrospasm. Groups of rats similar to those described above were treated daily for 14 days with 25 mg/kg (II), i.p., and then were challenged with a dose of 40 mg/kg Ro4-1284, i.p. The results of this test were shown in the following Table.
# [3] = tested on: rats with unilateral caudate nucleus (striatum) lesion; assay: Rotational behavior in rats with unilateral striatum lesion, testing of (II)
# Experimental: Three groups of 12 male Sprague-Dawley rats (Charles River Laboratories, Wilmington, Mass.) weighing 100-150 g, were housed 6 per cage in a well-ventilated and air-conditioned room of ambient temperature (22±2° C.) and relative humidity 45%. The rats had access to food (Big Red Laboratory Chow, Agway Inc., Syracuse, N.Y.) and water ad libitum. Light (“Vita Light”, Duro Test Corp., North Bergen, N.J.) was provided between 9 am and 9 pm. These groups were used for rotational study, the dosage of (II) being 100 mg/kg, i.p.
# One group served as a control group (no treatment), a second group was a sham operated group, and a third group was the operated group. All surgery was performed under anesthesia (sodium pentobarbital, 50 mg/ml, as required). The rats were placed in a Kopf stereotaxic instrument (model #900). Unilateral anodal electrolytic lesions were made with constant current supply (lesion-producing device #58040, Stoelting, Chicago, Ill.). Current (2.0 mV for 10 seconds) was passed through stainless steel insulated wire pc 32, 0.008 inches diameter (“Formax”, Stoelting, Chicago, Ill.), bared only at the tip. The coordinates (modified from Konig and Klippel, 1963) for caudate nucleus lesion were: A 8.5, L 2.2, V+1.8. The lesions were made in the left side of the brain. Sham operated animals were treated as lesioned animals, i.e. they were placed in the stereotaxic instrument and an electrode was placed in the brain, but without passing electric current therethrough. After surgery, each rat was placed in an individual cage. Tests were made at day 10 after surgery. At the end of the experiment, each rat was given an overdose of pentobarbital and perfused with saline, followed by 10% formalin. Brains were removed and serial coronal slices were made at 40 micra, using a freezing microtome. Representative slides were stained with Cresyl Violet for verification of the lesion.
# Details of the procedure with regard to determination of rotational behavior were substantially as described above for testing (I).
# [4] = lesioned rats, 100 mg/kg i.p., day 10 after surgery
smiles,measurement,setting,value
"CC/C=C\C/C=C\C/C=C\CCCCCCCC(=O)N[C@@H](Cc1ccc(O)cc1)C(=O)O [(I), N-(α-linolenoyl)tyrosine]",rate of rotational motion,"[1]; lesioned rats, 10 mg/kg i.p., 30-40 minutes post-injection, day 4 after surgery, increased from 4 cycles/minute",40 cycles/minute
same,crossing of the blood-brain barrier,"[1]; rat, in vivo",cross the blood-brain barrier
same,abnormal behavior (stereotype),"[1]; rat, in vivo, ip, 10 mg/kg",not found
"CCC1(O)CC2c3cc(OC)c(OC)cc3CCN2CC1CC(C)C (centres unmarked) [Ro4-1284, reference compound]",rate of eyelid blinking/min.,"[2]; Ro4-1284 40 mg/kg i.p. alone, 30 minutes after treatment with Ro4-1284",19.08 ± 3.4 min⁻¹
"CC/C=C\C/C=C\C/C=C\CCCCCCCC(=O)N[C@@H](Cc1ccc(O)cc1)C(=O)OC [(II), N-β-linolenyltyrosine Methyl Ester]",rate of eyelid blinking/min.,"[2]; 25 mg/kg (II) i.p. daily for 14 days, then Ro4-1284 40 mg/kg i.p., 30 minutes after Ro4-1284, p < 0.001",5.00 ± 1.95 min⁻¹
same,crossing of the blood-brain barrier,[3]; conclusion drawn from the behavioral testing,cross the blood-brain barrier
same,% L,[3]; [4],98%
same,% R,[3]; [4],2%
same,L (turns to the left),[3]; [4],98
same,L + R,[3]; [4],100
same,R (turns to the right),[3]; [4],2
